Assay results published in patent publication US9783537B2, “3-(4-ethylnylphenyl) pyridopyrimidinone compounds and process for preparation thereof useful as potential anticancer agents” (Council of Scientific & Industrial Research, priority 2013, dated 2017).
Where two headings read alike, the source gives them in different places.

How the values were obtained:
[1] = tested on: six leukemia cancer cell lines (CCRF-CEM, HL-60, K-562, MOLT-4, SR and RPMI-8226); assay: in vitro anticancer activity, leukemia panel; type: cell-based; details: Homo sapiens, exposure at least 48 h, read-out: GI50, range over panel
[2] = in vitro anticancer activity, non-small cell lung panel; type: cell-based; details: Homo sapiens; nine non-small cell lung cancer cell lines, exposure at least 48 h; read-out: GI50, range over panel
SNB-19 = assay: SRB 48 h growth assay, CNS SNB-19; type: cell-based, human; details: SNB-19, CNS
NCI-H322M = assay: SRB 48 h growth assay, Non-small Cell Lung NCI-H322M; type: cell-based, human
UACC-257 = assay: SRB 48 h growth assay, Melanoma UACC-257; type: cell-based, human; details: UACC-257, Melanoma
[3] = in vitro anticancer activity, melanoma panel; type: cell-based; details: Homo sapiens; nine melanoma cell lines, exposure at least 48 h; read-out: GI50, range over panel
NCI/ADR-RES = assay: SRB 48 h growth assay, Ovarian NCI/ADR-RES; type: cell-based, human
COLO 205 = assay: SRB 48 h growth assay, Colon COLO 205; type: cell-based, human; details: COLO 205, Colon
KM12 = assay: SRB 48 h growth assay, Colon KM12; type: cell-based, human
SK-OV-3 = assay: SRB 48 h growth assay, Ovarian SK-OV-3; type: cell-based, human; details: SK-OV-3, Ovarian
HCT-116 = assay: SRB 48 h growth assay, Colon HCT-116; type: cell-based, human; details: HCT-116, Colon
MDA-MB-468 = assay: SRB 48 h growth assay, Breast MDA-MB-468; type: cell-based, human; details: MDA-MB-468, Breast
UO-31 = assay: SRB 48 h growth assay, Renal UO-31; type: cell-based, human; details: UO-31, Renal
SNB-75 = assay: SRB 48 h growth assay, CNS SNB-75; type: cell-based, human; details: SNB-75, CNS
LOX IMVI = assay: SRB 48 h growth assay, Melanoma LOX IMVI; type: cell-based, human
SK-MEL-5 = assay: SRB 48 h growth assay, Melanoma SK-MEL-5; type: cell-based, human; details: SK-MEL-5, Melanoma
NCI-H226 = assay: SRB 48 h growth assay, Non-small Cell Lung NCI-H226; type: cell-based, human
OVCAR-3 = assay: SRB 48 h growth assay, Ovarian OVCAR-3; type: cell-based, human; details: OVCAR-3, Ovarian
SF-539 = assay: SRB 48 h growth assay, CNS SF-539; type: cell-based, human; details: SF-539, CNS
IGROV1 = assay: SRB 48 h growth assay, Ovarian IGROV1; type: cell-based, human
SK-MEL-28 = assay: SRB 48 h growth assay, Melanoma SK-MEL-28; type: cell-based, human; details: SK-MEL-28, Melanoma
[4] = tested on: eight renal cancer cell line (786-0, A498, ACHN, CAKI-1, SN12C, TK-10, UO-31 and RXF 393); assay: in vitro anticancer activity, renal panel; type: cell-based; details: Homo sapiens; eight renal cancer cell lines, exposure at least 48 h; read-out: in vitro anticancer activity, range over panel
HL-60(TB) = assay: SRB 48 h growth assay, Leukemia HL-60(TB); type: cell-based, human
OVCAR-8 = assay: SRB 48 h growth assay, Ovarian OVCAR-8; type: cell-based, human; details: OVCAR-8, Ovarian
HOP-92 = assay: SRB 48 h growth assay, Non-small Cell Lung HOP-92; type: cell-based, human; details: Homo sapiens, HOP-92, Non-small Cell Lung
SW-620 = assay: SRB 48 h growth assay, Colon SW-620; type: cell-based, human; details: SW-620, Colon
[5] = Homo sapiens, read-out: Growth Inhibition GI50
[6] = Homo sapiens, read-out: Log10 GI50 (converted)
[7] = Homo sapiens, read-out: Log10 LC50 (converted)

Compound: C#Cc1ccc(-n2c(/C=C/c3ccc(C(F)(F)F)cc3)nc3ncccc3c2=O)cc1 [4c, (E)-3-(4-Ethynylphenyl)-2-(4-(trifluoromethyl)styryl)pyrido[2,3-d]pyrimidin-4(3H)-one]
- GI50 [1]: 450 to 2430 nM
- GI50 [2]: 1630 to 7450 nM
- GI50 (SNB-19; [5]): 1910 nM
- GI50 (SNB-19; [6]): 1910 nM
- CC50 (SNB-19; [7]): 9550 nM
- Log10 TGI50 (SNB-19): −5.37
- Log10 TGI50 (NCI-H322M): −5.15
- GI50 (NCI-H322M; [5]): 2250 nM
- GI50 (NCI-H322M; [6]): 2240 nM
- CC50 (NCI-H322M; [7]): 27500 nM
- GI50 (UACC-257; [5]): 1560 nM
- GI50 (UACC-257; [6]): 1550 nM
- CC50 (UACC-257; [7]): 5620 nM
- Log10 TGI50 (UACC-257): −5.53
- GI50 [3]: 510 to 4970 nM
- Log10 TGI50 (NCI/ADR-RES): −5.16
- GI50 (NCI/ADR-RES; [5]): 2500 nM
- GI50 (NCI/ADR-RES; [6]): 2510 nM
- CC50 (NCI/ADR-RES; [7]): > 100000 nM
- Log10 TGI50 (COLO 205): −5.35
- GI50 (COLO 205; [5]): 2230 nM
- GI50 (COLO 205; [6]): 2240 nM
- CC50 (COLO 205; [7]): 8910 nM
- Log10 TGI50 (KM12): −5.46
- GI50 (KM12; [5]): 1790 nM
- GI50 (KM12; [6]): 1780 nM
- CC50 (KM12; [7]): 6610 nM
- GI50 (SK-OV-3; [5]): 3610 nM
- GI50 (SK-OV-3; [6]): 3630 nM
- CC50 (SK-OV-3; [7]): 53700 nM
- Log10 TGI50 (SK-OV-3): −4.87
- Log10 TGI50 (HCT-116): −5.52
- GI50 (HCT-116; [5]): 1640 nM
- GI50 (HCT-116; [6]): 1620 nM
- CC50 (HCT-116; [7]): 5620 nM
- GI50 (MDA-MB-468; [5]): 1510 nM
- GI50 (MDA-MB-468; [6]): 1510 nM
- CC50 (MDA-MB-468; [7]): 8710 nM
- Log10 TGI50 (MDA-MB-468): −5.44
- GI50 (UO-31; [5]): 1430 nM
- GI50 (UO-31; [6]): 1450 nM
- CC50 (UO-31; [7]): 9330 nM
- Log10 TGI50 (UO-31): −5.44
- GI50 (SNB-75; [5]): 1810 nM
- GI50 (SNB-75; [6]): 1820 nM
- CC50 (SNB-75; [7]): 28200 nM
- Log10 TGI50 (SNB-75): −5.14
- Log10 TGI50 (LOX IMVI): −5.37
- GI50 (LOX IMVI; [5]): 1890 nM
- GI50 (LOX IMVI; [6]): 1910 nM
- CC50 (LOX IMVI; [7]): 9770 nM
- GI50 (SK-MEL-5; [5]): 1490 nM
- GI50 (SK-MEL-5; [6]): 1480 nM
- CC50 (SK-MEL-5; [7]): 5500 nM
- Log10 TGI50 (SK-MEL-5): −5.54
- Log10 TGI50 (NCI-H226): −5.39
- GI50 (NCI-H226; [5]): 1990 nM
- GI50 (NCI-H226; [6]): 2000 nM
- LC50 (NCI-H226; [7]): 8510 nM
- GI50 (OVCAR-3; [5]): 1670 nM
- GI50 (OVCAR-3; [6]): 1660 nM
- CC50 (OVCAR-3; [7]): 6030 nM
- Log10 TGI50 (OVCAR-3): −5.50
- GI50 (SF-539; [5]): 1680 nM
- GI50 (SF-539; [6]): 1660 nM
- CC50 (SF-539; [7]): 6030 nM
- Log10 TGI50 (SF-539): −5.50
- Log10 TGI50 (IGROV1): −5.40
- GI50 (IGROV1; Homo sapiens, IGROV-1, read-out: Growth Inhibition GI50): 1960 nM
- GI50 (IGROV1; Homo sapiens, IGROV-1, read-out: Log10 GI50 (converted)): 1950 nM
- CC50 (IGROV1; Homo sapiens, IGROV-1, read-out: Log10 LC50 (converted)): 8320 nM
- GI50 (SK-MEL-28; [5]): 1780 nM
- GI50 (SK-MEL-28; [6]): 1780 nM
- CC50 (SK-MEL-28; [7]): 6030 nM
- Log10 TGI50 (SK-MEL-28): −5.49
- GI50 [4]: 1690 to 4080 nM
- Log10 TGI50 (HL-60(TB)): −5.22
- GI50 (HL-60(TB); [5]): 2070 nM
- GI50 (HL-60(TB); [6]): 2090 nM
- CC50 (HL-60(TB); [7]): > 100000 nM
- GI50 (OVCAR-8; [5]): 1870 nM
- GI50 (OVCAR-8; [6]): 1860 nM
- CC50 (OVCAR-8; [7]): 31600 nM
- Log10 TGI50 (OVCAR-8): −5.33
- GI50 (HOP-92; read-out: Growth Inhibition GI50): 1320 nM
- GI50 (HOP-92; read-out: Log10 GI50 (converted)): 1320 nM
- CC50 (HOP-92; read-out: Log10 LC50 (converted)): 8910 nM
- GI50 (SW-620; [5]): 1920 nM
- GI50 (SW-620; [6]): 1910 nM
- CC50 (SW-620; [7]): 7410 nM
- Log10 TGI50 (SW-620): −5.42
